Measured values: the supplement of paper PMC10307832

Experiments:
Experiment in all cases: relative viability (nuclei count vs DMSO), 5 days (fraction); higher = more cells survive
[1] = compound: COC1=CC=C(C=C1)CN2C=CC3=C2C=C(C=C3)C(=O)NO + Nc1ncn([C@H]2C[C@H](O)[C@@H](CO)O2)c(=O)n1 [Decitabine] (partner 2 µM)
How it was run: (§1)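 For relative viability, nuclei counts in treated wells were divided by those in vehicle wells. Lung cancer cell lines had been pin-tool dosed in 1536-well plates the day after seeding and cultured for 5 days, then fixed and stained in one step (final 0.05% Triton X-100, 1% formaldehyde, 1 ug/ml Hoechst) and imaged at 4×. Doses were one drug alone or a fixed anchor-drug dose plus five library-drug doses (not always all listed) in √10 steps, and values are duplicate-plate medians.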

Veliparib + Vorinostat = compound: C[C@]1(c2nc3c(C(N)=O)cccc3[nH]2)CCCN1 [Veliparib] + O=C(CCCCCCC(=O)Nc1ccccc1)NO [Vorinostat] (partner 1 µM)
How it was run: as §1

Veliparib + Tozasertib = compound: C[C@]1(c2nc3c(C(N)=O)cccc3[nH]2)CCCN1 [Veliparib] + Cc1cc(Nc2cc(N3CCN(C)CC3)nc(Sc3ccc(NC(=O)C4CC4)cc3)n2)n[nH]1 [Tozasertib] (partner 0.1 µM)
How it was run: as §1

[2] = compound: COC1=CC=C(C=C1)CN2C=CC3=C2C=C(C=C3)C(=O)NO + C[C@@H](Oc1cc(-c2cnn(C3CCNCC3)c2)cnc1N)c1c(Cl)ccc(F)c1Cl [Crizotinib] (partner 1 µM)
How it was run: as §1

Cell Line	relative viability ([1]; first compound 0.08 µM)	relative viability ([1]; first compound 0.253 µM)	relative viability ([1]; first compound 0.8 µM)	relative viability ([1]; first compound 2.53 µM)	relative viability ([1]; first compound 8 µM)	relative viability (Veliparib + Vorinostat; first compound 0.02 µM)	relative viability (Veliparib + Vorinostat; first compound 0.06325 µM)	relative viability (Veliparib + Vorinostat; first compound 0.2 µM)	relative viability (Veliparib + Vorinostat; first compound 0.6325 µM)	relative viability (Veliparib + Vorinostat; first compound 2 µM)	relative viability (Veliparib + Tozasertib; first compound 0.02 µM)	relative viability (Veliparib + Tozasertib; first compound 0.06325 µM)	relative viability (Veliparib + Tozasertib; first compound 0.2 µM)	relative viability (Veliparib + Tozasertib; first compound 0.6325 µM)	relative viability (Veliparib + Tozasertib; first compound 2 µM)	relative viability ([2]; first compound 0.08 µM)	relative viability ([2]; first compound 0.253 µM)	relative viability ([2]; first compound 0.8 µM)	relative viability ([2]; first compound 2.53 µM)	relative viability ([2]; first compound 8 µM)
NCI-H2170	0.494	0.514	0.459	0.455	0.43	0.795	0.777	0.839	0.786	0.79	0.748	0.744	0.724	0.709	0.747	0.938	1.19	1.17	1.26	1.12
NCI-H2085	0.561	0.571	0.639	0.593	0.549	0.601	0.778	0.753	0.763	0.756	0.737	0.888	0.75	0.738	0.849	0.804	0.944	0.853	0.928	0.926
NCI-H1666	0.639	0.797	0.81	0.659	0.723	0.988	0.963	1.14	0.997	1.05	0.582	0.582	0.598	0.547	0.62	1.18	1.08	1.08	0.992	1.03
HCC-78	0.768	0.643	0.74	0.702	0.521	0.5	0.437	0.453	0.44	0.452	0.402	0.381	0.404	0.35	0.404		0.373	0.345	0.342	0.344
201T	0.843	0.867	0.856	0.863	0.817	0.922	0.954	0.929	1.16	0.928	0.935	0.952	0.961	0.946	0.921	1.02	0.999	1.06	1.08	0.969
